Series [1] deals with recombinant NL4-3 virus (nef section replaced with Renilla luciferase gene) in MT-2 cells. As to the kind of experiment: HIV cell culture assay (antiviral activity, luciferase readout in infected MT-2 cells). In kind it is cell-based. The note with it: NL43. As for the experimental part: HIV cell culture assay—MT-2 cells, 293T cells and the proviral DNA clone of NL4-3 virus were obtained from the NIH AIDS Research and Reference Reagent Program. MT-2 cells were propagated in RPMI 1640 media supplemented with 10% heat inactivated fetal bovine serum (FBS), […]. The 293T cells were propagated in DMEM media supplemented with 10% heat inactivated FBS, […]. A recombinant NL4-3 proviral clone, in which a section of the nef gene was replaced with the Renilla luciferase gene, was used to make the reference virus used in these studies. The recombinant virus was prepared through transfection of the recombinant NL4-3 proviral clone into 293T cells using Transit-293 Transfection Reagent from Minis Bio LLC (Madison, Wis.). Supernatent was harvested after 2-3 days and the amount of virus present was titered in MT-2 cells using luciferase enzyme activity as a marker by measuring luciferase enzyme activity. Luciferase was quantitated using the EnduRen Live Cell Substrate from Promega (Madison, Wis.). Antiviral activities of compounds toward the recombinant virus were quantified by measuring luciferase activity in MT-2 cells infected for 4-5 days with the recombinant virus in the presence of serial dilutions of the compound.
The 50% effective concentration (EC5o) was calculated by using the exponential form of the median effect equation where (Fa)=1/[1+(ED50/drug conc.)m] (Johnson Va., Byington R T. Infectivity Assay. In Techniques in HIV Research. ed. Aldovini A, Walker B D. 71-76. New York: Stockton Press.1990). The 50% inhibitory concentration (EC50) was calculated by using the exponential form of the median effect equation where percent inhibition=1/[1 +(EC50/drug concentration)m], where m is a parameter that reflects the slope of the concentration-response curve.

A short description of series [2]: Compound cytotoxicity, XTT-based colorimetric assay. It counts as cell-based. The note with it: human; uninfected MT2 cells, day 4, XTT. As to the method:
Compound cytotoxicity and the corresponding CC50 values were determined using the same protocol as described in the antiviral assay except that uninfected cells were used. Cytotoxicity was assessed on day 4 in uninfected MT2 cells by using a XTT (2,3-bis[2-Methoxy-4-nitro-5-sulfophenyl]-2H-tetrazolium-5-carboxyanilide inner salt)-based colorimetric assay (Sigma-Aldrich, St Louis, Mo).
Background: Tetrazolium dyes change colour on reduction, which living cells bring about.

Some results are limits rather than exact numbers.

The values that follow come from patent publication US20210393633A1, “INHIBITORS OF HUMAN IMMUNODEFICIENCY VIRUS REPLICATION” (ViiV HEALTHCARE UK (NO.5) LIMITED, priority 2018, published 2021).

As for `Cn1nc(NS(C)(=O)=O)c2c(Cl)ccc(-n3c([C@H](Cc4cc(F)cc(F)c4)NC(=O)Cn4nc(C(F)F)c5c4C(F)(F)[C@@H]4C[C@H]54)nc4cc(C5=CCOCC5)ccc4c3=O)c21` (atropisomer, axis not shown; (P)) [Example 9, N—((S)-1-((3P)-3-(4-chloro-1-methyl-3-(methylsulfonamido)-1H-indazol-7-yl)-7-(3,6-dihydro-2H-pyran-4-yl)-4-oxo-3,4-dihydroquinazolin-2-yl)-2-(3,5-difluorophenyl)ethyl)-2-((3bS,4aR)-3-(difluoromethyl)-5,5-difluoro-3b,4,4a,5-tetrahydro-1H-cyclopropa[3,4]cyclopenta[1,2-c]pyrazol-1-yl)acetamide], in series [1], the concentration for a half-maximal effect (EC50) stood at 0.064 nM. For the same compound, the CC50 at 4 day in series [2] was greater than 1000 nM.

Regarding `CN1CCC(c2ccc3c(=O)n(-c4ccc(Cl)c5c(NS(C)(=O)=O)nn(C)c45)c([C@H](Cc4cc(F)cc(F)c4)NC(=O)Cn4nc(C(F)F)c5c4C(F)(F)[C@@H]4C[C@H]54)nc3c2)CC1` (atropisomer, axis not shown; (P)) [Example 14, N—((S)-1-((3P)-3-(4-chloro-1-methyl-3-(methylsulfonamido)-1H-indazol-7-yl)-7-(1-methylpiperidin-4-yl)-4-oxo-3,4-dihydroquinazolin-2-yl)-2-(3,5-difluorophenyl)ethyl)-2-((3bS,4aR)-3-(difluoromethyl)-5,5-difluoro-3b,4,4a,5-tetrahydro-1H-cyclopropa[3,4]cyclopenta[1,2-c]pyrazol-1-yl)acetamide], in series [1], the EC50 turned out to be 0.23 nM. For the same compound, the CC50 at 4 day in series [2] is greater than 500 nM.

By EC50 is commonly meant the concentration that produces a half-maximal response. Broadly, the CC50 is the concentration at which the toxic effect on the cells reaches its halfway point.
